Results from PMC9487510, “A Novel Oral GyrB/ParE Dual Binding Inhibitor Effective against Multidrug-Resistant Neisseria gonorrhoeae and Other High-Threat Pathogens” (Antimicrobial Agents and Chemotherapy, 2022).
Like-named read-outs stand apart in the source and are kept apart here.

System: N. gonorrhoeae clinical isolates
Test: MIC, agar dilution (CLSI)
Format: cell-based, Neisseria gonorrhoeae
Settings: Neisseria gonorrhoeae

CC[C@H]1OC(=O)[C@H](C)[C@@H](O[C@H]2C[C@@](C)(OC)[C@@H](O)[C@H](C)O2)[C@H](C)[C@@H](O[C@@H]2O[C@H](C)C[C@H](N(C)C)[C@H]2O)[C@](C)(O)C[C@@H](C)CN(C)[C@H](C)[C@@H](O)[C@]1(C)O [Azi, azithromycin]
0.5 µg/mL: MIC (strain CDC2 (GCREF2012 045), read-out: MIC) | MIC (strain CDC5 (GCREF2012 001), read-out: MIC) | MIC (strain CDC6 (GCREF2012 002), read-out: MIC) | MIC (strain CDC10 (GCREF2012 006), read-out: MIC) | MIC (strain CDC18 (GCREF2012 014), read-out: MIC) | MIC (strain CDC22 (GCREF2012 019), read-out: MIC) | MIC (strain CDC26 (GCREF2012 023), read-out: MIC) | MIC (strain CDC29 (GCREF2012 026), read-out: MIC) | MIC (strain CDC31 (GCREF2012 028), read-out: MIC) | MIC (strain CDC45 (GCREF2012 042), read-out: MIC) | MIC (strain CDC47 (GCREF2012 044), read-out: MIC) | MIC (strain CDC49 (GCREF2012 047), read-out: MIC) | MIC (strain CDC75 (GCREF2013 023), read-out: MIC)
8 µg/mL: MIC (strain CDC19 (GCREF2012 015), read-out: MIC) | MIC (strain CDC80 (GCREF2013 028), read-out: MIC)
0.016 µg/mL: MIC (strain CDC54 (GCREF2012 052), read-out: MIC) | MIC (strain CDC63 (GCREF2013 008), read-out: MIC)
4 µg/mL: MIC (strain CDC15 (GCREF2012 011), read-out: MIC) | MIC (strain CDC36 (GCREF2012 033), read-out: MIC) | MIC (strain CDC66 (GCREF2013 011), read-out: MIC) | MIC (strain CDC70 (GCREF2013 018), read-out: MIC) | MIC (strain CDC77 (GCREF2013 025), read-out: MIC) | MIC (strain CDC99 (GCREF2013 012), read-out: MIC)
0.125 µg/mL: MIC50 | MIC (strain CDC3 (GCREF2013 013)) | MIC (strain CDC4 (GCREF2013 030)) | MIC (strain CDC8 (GCREF2012 004)) | MIC (strain CDC9 (GCREF2012 005)) | MIC (strain CDC12 (GCREF2012 008)) | MIC (strain CDC13 (GCREF2012 009)) | MIC (strain CDC14 (GCREF2012 010)) | MIC (strain CDC21 (GCREF2012 018)) | MIC (strain CDC23 (GCREF2012 020)) | MIC (strain CDC25 (GCREF2012 022)) | MIC (strain CDC32 (GCREF2012 029)) | MIC (strain CDC33 (GCREF2012 030)) | MIC (strain CDC34 (GCREF2012 031)) | MIC (strain CDC46 (GCREF2012 043)) | MIC (strain CDC51 (GCREF2012 049)) | MIC (strain CDC52 (GCREF2012 050)) | MIC (strain CDC53 (GCREF2012 051)) | MIC (strain CDC55 (GCREF2013 001)) | MIC (strain CDC56 (GCREF2013 002)) | MIC (strain CDC57 (GCREF2013 003)) | MIC (strain CDC58 (GCREF2013 004)) | MIC (strain CDC59 (GCREF2013 044)) | MIC (strain CDC60 (GCREF2013 005)) | MIC (strain CDC62 (GCREF2013 007)) | MIC (strain CDC64 (GCREF2013 009)) | MIC (strain CDC65 (GCREF2013 010)) | MIC (strain CDC67 (GCREF2013 014)) | MIC (strain CDC68 (GCREF2013 016)) | MIC (strain CDC69 (GCREF2013 017)) | MIC (strain CDC71 (GCREF2013 019)) | MIC (strain CDC72 (GCREF2013 020)) | MIC (strain CDC73 (GCREF2013 021)) | MIC (strain CDC74 (GCREF2013 022)) | MIC (strain CDC76 (GCREF2013 024)) | MIC (strain CDC79 (GCREF2013 027)) | MIC (strain CDC81 (GCREF2013 029)) | MIC (strain CDC83 (GCREF2013 032)) | MIC (strain CDC84 (GCREF2013 033)) | MIC (strain CDC86 (GCREF2013 035)) | MIC (strain CDC87 (GCREF2013 036)) | MIC (strain CDC90 (GCREF2013 039)) | MIC (strain CDC91 (GCREF2013 040)) | MIC (strain CDC92 (GCREF2013 041)) | MIC (strain CDC93 (GCREF2013 042)) | MIC (strain CDC95 (GCREF2013 045)) | MIC (strain CDC96 (GCREF2013 046)) | MIC (strain CDC97 (GCREF2013 047)) | MIC (strain CDC100 (GCREF2013 015))
0.25 µg/mL: MIC (strain CDC1 (GCREF2012 016), read-out: MIC) | MIC (strain CDC11 (GCREF2012 007), read-out: MIC) | MIC (strain CDC16 (GCREF2012 012), read-out: MIC) | MIC (strain CDC24 (GCREF2012 021), read-out: MIC) | MIC (strain CDC27 (GCREF2012 024), read-out: MIC) | MIC (strain CDC28 (GCREF2012 025), read-out: MIC) | MIC (strain CDC30 (GCREF2012 027), read-out: MIC) | MIC (strain CDC35 (GCREF2012 032), read-out: MIC) | MIC (strain CDC37 (GCREF2012 034), read-out: MIC) | MIC (strain CDC38 (GCREF2012 035), read-out: MIC) | MIC (strain CDC39 (GCREF2012 036), read-out: MIC) | MIC (strain CDC40 (GCREF2012 037), read-out: MIC) | MIC (strain CDC41 (GCREF2012 038), read-out: MIC) | MIC (strain CDC42 (GCREF2012 039), read-out: MIC) | MIC (strain CDC43 (GCREF2012 040), read-out: MIC) | MIC (strain CDC48 (GCREF2012 046), read-out: MIC) | MIC (strain CDC50 (GCREF2012 048), read-out: MIC) | MIC (strain CDC61 (GCREF2013 006), read-out: MIC)
0.031 µg/mL: MIC (strain CDC78 (GCREF2013 026), read-out: MIC)
2 µg/mL: MIC (strain CDC82 (GCREF2013 031), read-out: MIC) | MIC (strain CDC88 (GCREF2013 037), read-out: MIC) | MIC (strain CDC89 (GCREF2013 038), read-out: MIC) | MIC (strain CDC94 (GCREF2013 043), read-out: MIC) | MIC (strain CDC98 (GCREF2013 048), read-out: MIC) | MIC90 (96 clinical isolates, read-out: MIC90)
> 16 µg/mL: MIC (strain CDC20 (GCREF2012 017), read-out: MIC)
